The source of these data is paper PMC8279416, “Structural Fine-Tuning of Desmuramylpeptide NOD2 Agonists Defines Their In Vivo Adjuvant Activity” (Journal of Medicinal Chemistry, 2021).

The test system of the experiment is NIH/OlaHsd mice. Put plainly: In vivo ovalbumin-specific antibody response, second experiment (neutral, anionic, mannosylated liposomes). The note with it: for Log10 (anti-OVA IgG1/anti-OVA IgG2a): second in vivo experiment, 0.15 μmol adjuvant, one week after second booster, mean ± SEM of 5 mice. Set-up: species or system mouse. How it is done: To determine whether the adjuvanticity of 75 can be modulated through changes to the liposomal formulation, a second in vivo experiment was designed in which the adjuvant activities of three different liposomal compositions were compared. Neutral liposomes were prepared from egg phosphatidylcholine and cholesterol.
Multilamellar liposomes were prepared by the modified thin lipid film method as described previously.[130],[131] For the preparation of neutral liposomes, a 7:5 molar ratio of egg-phosphatidylcholine and cholesterol was used. For the preparation of negatively charged liposomes, a 7:5:1 molar ratio of egg-phosphatidylcholine, cholesterol, and dicetylphosphate was used, while a 7:5:0.5 molar ratio of egg-phosphatidylcholine, cholesterol, and Man-PEG-Pam was used in the preparation of mannosylated liposomes. Lipids (total lipid concentration, 4 mg/mL) were dissolved in chloroform/methanol (2:1). A methanol or chloroform/methanol solution of MDP or the desmuramylpeptides was added to the lipid solution for a final concentration of 2 mM and 1.5 mM for the first (Figure 10) and second (Figure 11) experiments, respectively. After rotary evaporation of the solvent, the remaining lipid film was dried in vacuum for 1 h and then dispersed by gentle handshaking in an ovalbumin solution in saline (0.0667 and 0.1 mg/mL for the first and second experiments, respectively). This was then left overnight at 4 °C to swell and stabilize. Liposome size was reduced by sonification. Nonentrapped material was not separated from liposomes, and the complete liposome suspension was used for immunizations.
For the first experiment (Figure 10), sex-matched NIH/OlaHsd mice (five per group) were immunized subcutaneously in the tail base and boosted one time after 21 days. The injection volume in all experimental groups was 0.15 mL per mouse, which corresponds to 10 μg of OVA, […], and 0.30 μmol of MDP and desmuramylpeptides. For the second experiment (Figure 11), sex-matched NIH/OlaHsd mice (five per group) were immunized and boosted two times subcutaneously into the tail base at 21-day intervals. The injection volume in all experimental groups was 0.1 mL per mouse, which corresponds to 10 μg of OVA, 400 μg of lipids, and 0.15 μmol of MDP and 75. The mice were anesthetized with ip application of ketamine/xylazine (25 mg/kg each) prior to blood collection from the axillary plexus on the seventh day after the last booster dose. Individual serum from each animal was decomplemented at 56 °C for 30 min and then stored at −20 °C until tested.
ELISA assays were performed as detailed previously.[46] Briefly, high-binding ELISA plates (Costar, U.S.A.) were coated with a 15 μg/mL solution of ovalbumin in carbonate buffer, pH 9.6, and incubated overnight at room temperature. Nonspecific antibody binding was blocked with 0.5% w/v bovine serum albumin in PBS-T (0.05% (v/v) Tween 20 in phosphate-buffered saline) for 2 h at 37 °C. After washing, five serial dilutions of mice sera and standard preparations were added in duplicate. Plates were incubated overnight at room temperature, washed, and analyzed for ovalbumin-specific IgG levels by incubation with HRP-conjugated goat anti-mouse IgG (2 h at 37 °C) and then, after washing, with 0.6 mg/mL o-phenylenediaminedihydrochloride solution in citrate-phosphate buffer, pH 5.0, with 0.5 μL of 30% H2O2 per milliliter for 30 min at room temperature in the dark. The enzymatic reaction was stopped with 12.5% H2SO4, and absorbance at 492 nm was measured using a microplate reader (Thermo Fisher Scientific, Waltham, MA, U.S.A.). For the determination of ovalbumin-specific IgG1 and IgG2a, the plates were incubated with biotin-conjugated rat anti-mouse IgG1 or IgG2a (2 h at 37 °C) and subsequently with streptavidin–peroxidase for another 2 h at 37 °C. After washing, the substrate solution was added and incubated for 30 min at room temperature in the dark, as described above. […]

Structures are written as SMILES.

Regarding `CCCCCCCCCCCCCCCCCC(=O)Oc1ccc(/C=C/C(=O)NCC(=O)N[C@H](C(=O)N[C@H](CCC(=O)OCC)C(=O)OCC)C(C)C)cc1OC` [Compound 75, Diethyl ((E)-3-(3-Methoxy-4-(stearoyloxy)phenyl)acryloyl)glycyl-L-valyl-D-glutamate], where the note is “mannosylated liposomes, 0.15 μmol adjuvant per dose”, the “Ovalbumin-specific IgG2a response (in words)” value is given as “enhanced the production of IgG2a antibodies”. Moreover, the “Ovalbumin-specific IgG1 response (in words)” value (negatively charged liposomes, 0.15 μmol adjuvant per dose) is “diminished IgG1 activity”. The “Ovalbumin-specific IgG levels compared to controls without adjuvant (in words)” value (regardless of the liposomal composition) is recorded as “increased the levels of IgG antibodies”. In addition, the “Log10 (anti-OVA IgG1/anti-OVA IgG2a)” value came to 1.84 ± 0.20 (anionic liposomes), 2.15 ± 0.17 (mannosylated liposomes) and 2.27 ± 0.17 (neutral liposomes).
